Measurements from patent publication US12221631B2, “Engineered migrasome, method for preparing same, and uses thereof” (priority 2021, dated 2025).

Assays:
[1] = test system: Tspan4-GFP-expressing NRK cells; settings: sodium chloride in DPBS replaced by chloride of the cation at equal molar concentration; five-step hypotonic stimulation
Method: Next, the effect of different cations on the formation of engineered migrasomes was tested.

[2] = test system: Tspan4-GFP-expressing NRK cells; assay: Formation of engineered migrasomes after latrunculin A treatment and step-wise hypotonic stimulation; type: cell-based, rat; settings: latrunculin A 0.25, 0.5, 1 μM in DPBS 10 min, then three-step hypotonic stimulation; promotion dose-dependent
From the text: The results after step-wise hypotonic treatment were shown in FIG. 2A, and the statistical results of the number of engineered migrasomes produced per cell were shown in FIG. 2B.

| Structure (SMILES) | ability to promote the formation of engineered migrasomes [1] | number of engineered migrasomes produced per cell [2] |
| --- | --- | --- |
| [Cl-].[Cs+] [cesium ions, cesium chloride] | significantly stronger ability | – |
| C[N+](C)(C)CCO.[Cl-] [choline ions, choline chloride] | significantly stronger ability | – |
| C/C1=C/C(=O)O[C@@H]2C[C@@H](CC[C@H](C)/C=C\C=C\CC1)O[C@@](O)([C@@H]1CSC(=O)N1)C2 [latrunculin A] | – | significantly promote an increase in the number of engineered migrasomes |
| [Cl-].[K+] [potassium ions, potassium chloride] | significantly stronger ability | – |
| [Cl-].[Na+] [sodium ions, sodium chloride] | relatively weak ability | – |
